Each structure is given as a SMILES string. Some results are limits rather than exact numbers.

The assay has as its target T1, androgen receptor (AR) (Homo sapiens, UniProt P10275, T878A).
T1 construct: endogenous in cells; host or cells: LNCaP
T1 sequence (P10275 1-920 T878A): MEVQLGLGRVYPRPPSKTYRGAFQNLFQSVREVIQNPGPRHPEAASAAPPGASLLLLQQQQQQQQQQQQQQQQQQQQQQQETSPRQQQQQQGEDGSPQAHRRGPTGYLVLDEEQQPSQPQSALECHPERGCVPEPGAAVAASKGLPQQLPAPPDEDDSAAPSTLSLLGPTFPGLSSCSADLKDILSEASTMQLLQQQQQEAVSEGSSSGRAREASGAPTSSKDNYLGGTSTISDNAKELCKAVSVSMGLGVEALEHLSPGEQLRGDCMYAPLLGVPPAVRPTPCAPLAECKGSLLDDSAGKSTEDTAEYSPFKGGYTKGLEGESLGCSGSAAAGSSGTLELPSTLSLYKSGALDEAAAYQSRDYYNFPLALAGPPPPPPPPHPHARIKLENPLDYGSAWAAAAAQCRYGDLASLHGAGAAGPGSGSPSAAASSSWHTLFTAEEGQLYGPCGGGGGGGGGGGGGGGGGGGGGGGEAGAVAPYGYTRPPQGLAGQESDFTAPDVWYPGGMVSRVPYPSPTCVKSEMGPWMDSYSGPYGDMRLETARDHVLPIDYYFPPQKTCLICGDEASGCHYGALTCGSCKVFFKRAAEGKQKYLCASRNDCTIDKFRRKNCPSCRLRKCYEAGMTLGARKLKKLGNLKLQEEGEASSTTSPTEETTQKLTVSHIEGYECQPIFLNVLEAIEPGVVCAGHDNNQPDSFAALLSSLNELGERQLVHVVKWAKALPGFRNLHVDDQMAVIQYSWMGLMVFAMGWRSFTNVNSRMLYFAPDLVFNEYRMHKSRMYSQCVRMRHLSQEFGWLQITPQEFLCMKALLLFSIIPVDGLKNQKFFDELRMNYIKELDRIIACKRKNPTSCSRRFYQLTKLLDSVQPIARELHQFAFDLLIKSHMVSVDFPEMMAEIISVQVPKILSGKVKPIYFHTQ
Nature of the assay: Androgen-induced PSA-luciferase assay, Luciferase Assay A (LNCaP transiently transfected with PSA (6.1 kb)-luciferase reporter). As to conditions: LNCaP cells, 1 h pretreatment, R1881 (1 nM) 24 h, read-out: PSA-Luc IC50 Range. The assay is classed as cell-based. On the procedure:
The PSA (6.1 kb)-luciferase reporter contains functional AREs (androgen response elements) to which AR binds in response to androgen to induce luciferase activity. LNCaP cells were transiently transfected with the PSA (6.1 kb)-luciferase reporter for 24 h, and then pretreated with vehicle (DMSO) or indicated concentration of representative compounds for one hour prior to the addition of synthetic androgen, R1881 (1 nM). After 24 h of incubation with R1881, the cells were harvested, and relative luciferase activities were determined (FIG. 1). To determine the IC50, treatments were normalized to vehicle control activity induced by R1881 (Table 2).
Luciferase Assay A: Cells were lysed using Passive Lysis Buffer (Promega) and then collected into V-bottom 96-well tissue culture plates. Lysates were centrifuged at 4° C. for 5 minutes at 3000 rpm. To measure luminescence of LNCaP cell lysates the Firefly Luciferase Assay System (Promega) was employed, according to manufacturer's protocol. Relative luminescence units (RLU) in cell lysates were detected for 10 seconds using Promega GloMax-Multi Detection Luminometer (Promega). Values were normalized to protein content. GraphPad Prism graphing software was used to calculate IC50 values. Luciferase Assay A was run for all compounds in Table 2 unless otherwise noted below.
Statistical analyses were performed using GraphPad Prism (Version 6.01 for Windows; La Jolla, CA, USA). Comparisons between treatment and control groups were compared using Two-Way ANOVA with post-hoc Dunnett's and Tukey's tests. Differences were considered statistically significant at P values less than 0.05.
As to `CC(C)(c1ccc(OCc2ccnc(NS(C)(=O)=O)n2)cc1)c1cc(Cl)c(N2CC3CC(C2)O3)c(C#N)c1` [Compound A126], the IC50 was > 2000 nM.

`CS(=O)(=O)Nc1nccc(COc2ccc(C(=O)c3cc(Cl)c(OCCCl)c(C#N)c3)cc2)n1` [Compound A128]: the IC50 was > 2000 nM.

Take `CC(C)(c1ccc(OCc2ccnc(NS(C)(=O)=O)n2)cc1)c1cc(Cl)c(CCO)c(C#N)c1` [Compound A129]: the IC50 is > 2000 nM.

With `CC(C)(c1ccc(OCc2cccc(NS(C)(=O)=O)c2F)cc1)c1cc(Cl)c(OCCCl)c(C#N)c1` [Compound A130], the IC50 fell in the range of 500 to 2000 nM.

Consider `CC(C)(c1ccc(OCc2ccc(F)c(NS(C)(=O)=O)c2)cc1)c1cc(Cl)c(OCCCl)c(C#N)c1` [Compound A131], for which the IC50 lay in the range of 500 to 2000 nM.

Turning to `CC(C)(c1ccc(OCc2ccnc(NS(C)(=O)=O)n2)cc1)c1cc(Cl)c(N2CCC(F)(F)CC2)c(C#N)c1` [Compound A132], the IC50 is > 2000 nM.

As for `CC(C)(c1ccc(OCc2ccnc(NS(C)(=O)=O)n2)cc1)c1cc(Cl)c(N2CCC3(CC2)CC3)c(C#N)c1` [Compound A133], the IC50 was > 2000 nM.

`CC(C)(c1ccc(OCc2ccnc(NS(C)(=O)=O)n2)cc1)c1cc(Cl)c(N2CCN(CC(F)(F)F)CC2)c(C#N)c1` [Compound A134]: the IC50 is 500 to 2000 nM.

On to `CN(c1nccc(Oc2ccc(C(C)(C)c3cc(Cl)c(OCCCl)c(C#N)c3)cc2)n1)S(C)(=O)=O` [Compound A135], for which the IC50 lay in the range of 500 to 2000 nM.

With `CC(C)(c1ccc(OCc2ccnc(NS(C)(=O)=O)n2)cc1)c1cc(Cl)c(CCCl)c(C#N)c1` [Compound A136], the IC50 was 500 to 2000 nM.

Regarding `CS(=O)(=O)N1CC2(CC(Oc3ccc(Oc4cc(Cl)c(OCCCl)c(C#N)c4)cc3)C2)C1` [Compound A137], the IC50 lay within 500 to 2000 nM.

For the compound `CC(C)(c1ccc(-c2cnc(N3CCC34CN(S(C)(=O)=O)C4)nc2)cc1)c1cc(Cl)c(OCCCl)c(C#N)c1` [Compound A138], the IC50 fell in the range of 500 to 2000 nM.

For the compound `CC(C)(c1ccc(OCc2ccnc(NS(C)(=O)=O)n2)cc1)c1cc(Cl)c(OCCCOC(=O)Nc2ccccc2)c(C#N)c1` [Compound A139], the IC50 was in the range of 500 to 2000 nM.

As to `CC(C)(c1ccc(OC2CC3(C2)CN(S(C)(=O)=O)C3)cc1)c1cc(Cl)c(N2CCOCC2)c(C#N)c1` [Compound A140], the IC50 fell in the range of 500 to 2000 nM.

Consider `CC(C)(c1ccc(OC2CC3(C2)CN(S(C)(=O)=O)C3)cc1)c1cc(Cl)c(OC2CC2)c(C#N)c1` [Compound A141], for which the IC50 fell in the range of 500 to 2000 nM.

On to `CC(C)(c1ccc(OCC23CC(NS(C)(=O)=O)(C2)C3)cc1)c1cc(Cl)c(N2CCOCC2)c(C#N)c1` [Compound A142], for which the IC50 lay within 500 to 2000 nM.

Turning to `CC(C)(c1ccc(OCC23CC(NS(C)(=O)=O)(C2)C3)cc1)c1cc(Cl)c(OC2CC2)c(C#N)c1` [Compound A143], the IC50 was in the range of 500 to 2000 nM.

Take `CC(C)(c1ccc(OCc2ccnc(NS(C)(=O)=O)n2)cc1)c1cc(Cl)c(OCC2CCC2)c(C#N)c1` [Compound A146]: the IC50 was 500 to 2000 nM.

As to `CC(C)(c1ccc(OCc2ccnc(NS(C)(=O)=O)n2)cc1)c1cc(Cl)c(OCC2CC2)c(C#N)c1` [Compound A147], the IC50 lay in the range of 500 to 2000 nM.

`CC(C)(c1ccc(OCc2ccnc(NS(C)(=O)=O)n2)cc1)c1cc(Cl)c(N2CCOC3(CC3)C2)c(C#N)c1` [Compound A148]: the IC50 lay within 500 to 2000 nM.

As for `CC(C)(c1ccc(OCc2ccnc(NS(C)(=O)=O)n2)cc1)c1cc(Cl)c(N2CC3CC2CO3)c(C#N)c1` (stereo not shown) [Compound A149], the IC50 lay within 500 to 2000 nM.

Turning to `CC(C)(c1ccc(OC2CC3(CC(NS(C)(=O)=O)C3)C2)cc1)c1cc(Cl)c(OCCCl)c(C#N)c1` (stereo not shown) [Compound A150], the IC50 lay within 500 to 2000 nM.

For the compound `CC(C)(c1ccc(-c2cnc(NC3CCN(S(C)(=O)=O)CC3)nc2)cc1)c1cc(Cl)c(OCCCl)c(C#N)c1` [Compound A151], the IC50 was > 2000 nM.

Consider `CC(C)(c1ccc(OCc2ccnc(NS(C)(=O)=O)n2)cc1)c1cc(Cl)c(N2CCCC(F)(F)C2)c(C#N)c1` [Compound A152], for which the IC50 lay within 500 to 2000 nM.

`CC(C)(c1ccc(OCc2ccnc(NS(C)(=O)=O)n2)cc1)c1cc(Cl)c(N2CCC(F)CC2)c(C#N)c1` [Compound A153]: the IC50 was > 2000 nM.

Consider `CS(=O)(=O)Nc1cnc2cc(-c3ccc(Oc4cc(F)c(OC5CC5)c(C#N)c4)cc3)ccc2n1` [Compound A154], for which the IC50 lay in the range of 500 to 2000 nM.

Consider `CS(=O)(=O)Nc1cnc2cc(-c3ccc(Oc4cc(F)c(OCCCl)c(C#N)c4)cc3)ccc2n1` [Compound A155], for which the IC50 lay within 500 to 2000 nM.

On to `CC(C)(c1ccc(OCc2ccnc(NS(C)(=O)=O)n2)cc1)c1cc(Cl)c(CN2CCOCC2)c(Cl)c1` [Compound A159], for which the IC50 is > 2000 nM.

Take `CC(C)(c1ccc(OCc2ccnc(NS(C)(=O)=O)n2)cc1)c1cc(Cl)c(CN2CCCC(F)(F)C2)c(Cl)c1` [Compound A160]: the IC50 is > 2000 nM.

Regarding `CC1(O)CN(Cc2c(Cl)cc(C(C)(C)c3ccc(OCc4ccnc(NS(C)(=O)=O)n4)cc3)cc2Cl)C1` [Compound A161], the IC50 was > 2000 nM.

On to `CN(c1ccc(OCc2ccnc(NS(C)(=O)=O)n2)cc1)c1cc(Cl)c(OCCCl)c(C#N)c1` [Compound A162], for which the IC50 lay in the range of 500 to 2000 nM.

As for `CC(C)(c1ccc(OCc2ccnc(NS(C)(=O)=O)n2)cc1)c1cc(Cl)c(OC2CN(CC(F)(F)F)C2)c(C#N)c1` [Compound A165], the IC50 was > 2000 nM.

With `CC(C)(c1ccc(OCc2ccnc(NS(C)(=O)=O)n2)cc1)c1cc(Cl)c(CN2CC(F)(F)C2)c(Cl)c1` [Compound A166], the IC50 lay within 500 to 2000 nM.

As to `COC1CN(c2c(Cl)cc(C(C)(C)c3ccc(OCc4ccnc(NS(C)(=O)=O)n4)cc3)cc2C#N)C1` [Compound A167], the IC50 was > 2000 nM.

For `CC(C)(c1ccc(OCc2ccnc(NS(C)(=O)=O)n2)cc1)c1cc(Cl)c(CCN2CC(F)(F)C2)c(C#N)c1` [Compound A168], the IC50 is > 2000 nM.

Consider `CC(C)(c1ccc(OCc2ccnc(NS(C)(=O)=O)n2)cc1)c1cc(Cl)c(CCN2CC(O)C2)c(C#N)c1` [Compound A169], for which the IC50 was > 2000 nM.

Consider `CC(C)(c1ccc(OCc2ccnc(NS(C)(=O)=O)n2)cc1)c1cnc(OCCCl)c(C#N)c1` [Compound A170], for which the IC50 was > 2000 nM.

As to `CN(c1ccc(OCc2ccnc(NS(C)(=O)=O)n2)cc1)c1cc(C#N)c(OCCCl)cn1` [Compound A171], the half-inhibitory concentration (IC50) is > 2000 nM.

As to `CCCOc1c(Cl)cc(C(C)(C)c2ccc(OCc3ccnc(NS(C)(=O)=O)n3)cc2)cc1C#N` [Compound A178], the IC50 is < 500 nM.

As for `C=Cc1c(Cl)cc(C(C)(C)c2ccc(OCc3ccnc(NS(C)(=O)=O)n3)cc2)cc1C#N` [Compound A179], the IC50 was 500 to 2000 nM.

With `CC(C)(c1ccc(OCc2ccnc(NS(C)(=O)=O)n2)cc1)c1cc(Cl)c(OCCN2C(=O)CCCC2=O)c(C#N)c1` [Compound A180], the IC50 is > 2000 nM.

Regarding `CC(C)(c1ccc(OCc2ccnc(NS(C)(=O)=O)n2)cc1)c1cc(Cl)c(OCc2cnccn2)c(C#N)c1` [Compound A181], the IC50 is > 2000 nM.

With `CC(C)(c1ccc(OCc2ccnc(NS(C)(=O)=O)n2)cc1)c1cc(Cl)c(OCc2ccccc2)c(C#N)c1` [Compound A182], the IC50 was 500 to 2000 nM.

Take `CC(C)(c1ccc(OCc2ccnc(NS(C)(=O)=O)n2)cc1)c1cc(Cl)c(OCCNS(C)(=O)=O)c(C#N)c1` [Compound A183]: the IC50 is > 2000 nM.

On to `CC(C)(c1ccc(OCc2ccnc(NS(C)(=O)=O)n2)cc1)c1cc(Cl)c(OCCN2CCNCC2)c(C#N)c1` [Compound A184], for which the IC50 was > 2000 nM.

With `CS(=O)(=O)Nc1nccc(COc2ccc(Cc3cc(Cl)c(OCCCl)c(C#N)c3)cc2)n1` [Compound A185], the IC50 was > 2000 nM.

Values taken from US20230373934A1, “ANDROGEN RECEPTOR MODULATORS AND METHODS FOR THEIR USE” (ESSA Pharma, Inc., priority 2022, published 2023).
